From a melting point compilation (Tetko et al.; mined from patent text by program, amines drawn as free bases though some values may be those of a salt)

SMILES	melting point
Brc1cnc2nc(N3CCN(CCCCOc4ccccc4)CC3)nn2c1	122 to 123 °C
CCC(CC)c1nn(-c2ccc(C(F)(F)F)cn2)cc1CCCO	79 to 80 °C
CC(C)(O)C(=O)Nc1ccc(Sc2ccccc2)cc1F	91 to 92.5 °C
CCc1c(O)n[nH]c1C	232 to 234 °C
C1=Cn2ccnc2Cc2ccccc21	85.5 °C
COc1ccc(Oc2ccc(C(=O)N(C(C)C)C3CCCCC3)cc2)cc1	81.7 °C
CN1CCN(C)C1=Nc1ccccc1CN1CCOCC1	56 to 58 °C
O=c1oc(-c2ccccc2)cc(O)c1C(SCc1ccccc1)c1ccccc1 (stereo not given)	189 to 191 °C
CC12CCC3c4cc([N+](=O)[O-])c(O)cc4CCC3C1CCC2=O (stereo not given)	178 to 180 °C
CCOC(=O)c1n[nH]c(C(=O)OCC)c1C(=O)c1ccc(Cl)cc1[N+](=O)[O-]	168 °C
CCCSc1cc2c(c3c1OC(C)(C)C3)C(c1cccc(C(=O)O)c1)=NC(C)(C)C2	206 to 208 °C
CCN(CC)C(=O)n1cnc(S(=O)(=O)Cl)n1	44 to 47 °C
C=C(Cc1ccccc1)C(=O)NCC(=O)O	82 °C
COc1ccc(C2=NN(C(C)(C)C)C(=O)[C@H]3CCCC[C@@H]23)cc1OC (relative stereo)	99 to 101 °C
O=c1[nH]c(=O)n(C2CC(F)C(CO)O2)cc1C(Cl)=CI (stereo not given)	87 °C
Cc1ccccc1C(=O)c1nc[nH]c1C	165 to 166 °C
COc1ccc(Cn2c(N)cc(=O)[nH]c2=S)cc1OCc1ccccc1	239 to 240 °C
CCOC(=O)c1cccn2c(C=O)c(-c3ccccc3)nc12	139 °C
CC(=O)c1ccc(OCc2cncnc2)cc1OC(CCC(=O)O)c1ccccc1C (racemic)	142 to 144 °C
CCc1noc(-c2cn(-c3cccnc3)cn2)n1	152 to 153 °C
CCSc1c(O[C@@H]2CCC[C@H](N)C2)ccc2[nH]ncc12 (relative stereo)	110 °C
Cc1ccc(CN2CC=C(/C=C/c3ccc(Cl)cc3)CC2)cc1	113 to 115 °C
Cc1cnc2c(c1)C(=O)c1nccc(Br)c1C2=O	> 200 °C
COc1ccc(CSCC(=O)NO)cc1	107 °C
O=C1N(Cc2ccc(-c3ccccc3C(F)(F)F)o2)c2ccccc2C12COc1cc3c(cc12)OCO3 (stereo not given)	124 to 126 °C

SMILES	melting point
C=C(C)C(=O)Oc1cc(C(=O)OCC)cc(O)c1O	106 to 108 °C
CCC(=O)N1Cc2cnn(C)c2-c2cc(Cl)ccc21	127 to 128 °C
CC(C)CCS(=O)(=O)CC[C@H](O)[C@@H](N)CC(C)C	125 to 126 °C
ClC1=Nc2ccccc2Sc2ncccc21	134 to 135 °C
CC[C@@H](c1ccccc1)N(Cc1ccc(C(=O)O)c(F)c1)S(=O)(=O)c1ccc(Cl)cc1	95 to 97 °C
Cc1ccc(C)c2c1CCC2=O	70 °C
COC(=O)c1ccc([C@H]2CCN(Cc3ccccc3)C[C@@H]2O)cc1 (racemic)	103 to 104 °C
CNC(=S)N1CCc2nc(N)sc2C1	188 to 190 °C
CC[C@H](C)CNC(=O)[C@@H](C[C@H](O)[C@H](CC1CCCCC1)NC(=O)OC(C)(C)C)C(C)(C)O	64 to 67 °C
O=C(Nc1nccs1)c1ccc(CN2C(=O)C3(COc4cc5c(cc43)CCO5)c3ccccc32)cc1 (stereo not given)	> 250 °C
CC(C)c1ccc(S(=O)(=O)c2ccccc2)cc1S(=O)(=O)NC1CCN(C(=O)c2cccc(F)c2)CC1	215 to 218 °C
COC(=O)C1=C(NC(=O)Nc2cc(C(=O)OC(C)C)c(Cl)cc2F)CCS1	161 to 163 °C
NC(=O)c1cc(Cl)c(Cl)cc1C(=O)NCCN1CCC(c2noc3cc(F)ccc23)CC1	132 to 134 °C
COc1ccc2cc3c(c(-c4ccc(C(F)(F)F)cc4)c2c1)CNC3=O	219 to 221 °C
CC(C)CC(NC(=O)c1ccccc1)C(=O)NC(CCCN(C(=N)NC(=O)OCc1ccccc1)C(=O)OCc1ccccc1)C(=O)Oc1cccc2ccccc12 (stereo not given)	178 to 187 °C
O=S(=O)(Nc1c(F)cccc1F)c1nc2ncc(Cl)cn2n1	224 to 226 °C
CC=CC=CCOC(=O)C1=C(C)NC(C)=C(C(=O)OC)C1c1cccc([N+](=O)[O-])c1 (stereo not given)	135 to 136 °C
COc1ccccc1NC(=O)NC1N=C(c2ccc(Cl)cc2)c2c(sc(C)c2C)-n2c(C)nnc21 (stereo not given)	261 to 262 °C
OC(CCl)COc1ccc2c(c1)OCC(c1ccccc1)C2 (stereo not given)	74 to 76 °C
COc1cc(C(O)(C(F)(F)F)C(F)(F)F)cc(Br)c1NS(C)(=O)=O	38 to 41 °C
Cc1ccc(C2=Nc3ccccc3N=C(N3CCN(C)CC3)C2)cc1	169 to 170 °C
CC(C)(C)c1cc(SC#N)cc(C(C)(C)C)c1O	61.5 to 63 °C
CCOC(=O)NC(=S)OCc1ccc(Cl)cc1	95 °C
Sc1nc2ccccc2n1Cc1c(Cl)cccc1Cl	234 to 235 °C
COc1nc(OC)c(C(C)C)c(C(=O)c2cc(C)cc(Br)c2)n1	122 to 123 °C

SMILES	melting point
CS(=O)(=O)c1ccc(-c2cc(=O)n(CC(=O)c3ccccc3)nc2-c2ccc(F)cc2)cc1	178 to 180 °C
Cc1noc(=O)c2ccc(N)cc12	291 to 296 °C
Nc1ccc(Cl)cc1C(=O)Nc1ccc(S(=O)(=O)N2CCOCC2)cc1	229 to 231 °C
COc1cc(C=O)ccc1OCc1csc(N2CCOCC2)n1	122 to 123 °C
CC=CC=CC(=O)N1CC1C#N (stereo not given)	56 to 58 °C
CC(C)c1cccc(C(C)C)c1NS(=O)(=O)CC#N	195 to 197 °C
O=C(O)c1ccc(-c2nc(-c3ccc(F)cc3)c(-c3ccncc3)[nH]2)cc1	289 to 290 °C
CN(C)CCC(CCO)c1ccncc1 (stereo not given)	26 °C
O=C1C2C3COC2(C3)c2cccnc2N1c1ccccc1 (stereo not given)	198 to 200 °C
COC(=O)C1C(=O)Nc2ccc(Cl)cc2CC1c1ccc(OC)cc1 (stereo not given)	189 to 190 °C
COC(=O)CCC(=O)c1cccc(O)c1	102 to 103 °C
O=C(O)C(=O)c1ccsc1	63 °C
CC(NC1(C(=O)O)CCCC1)C(=O)N1CCCC1C(=O)O (stereo not given)	142 to 145 °C
Cc1ccc(N=C(Nc2ccc(C)cc2)ON2C(C)(C)CC(O)CC2(C)C)cc1	124 to 126 °C
O=C(Nc1ccccc1Cl)Nc1nc(=O)n(CC2CC2)cc1F	197 to 199 °C
CCCCCCCNC(=O)N(C)c1cccc(-c2ccc(C=C(C)C(=O)O)cc2OCC)c1	123 °C
O=C(Nc1cc(-c2nc(-c3ccco3)no2)ccc1Cl)OCC(Cl)(Cl)Cl	114 to 116 °C
COc1ccc(Nc2nc(Nc3cc4c(cc3OC)CCN(CC(=O)N(C)C)CC4)ncc2Cl)c(OC)n1	67 to 76 °C
O=C(O)c1cc2ccc3c(c2c(-c2ccc4c(c2)OCO4)c1COCc1ccccc1)OCO3	219 to 221 °C
CC(=O)Nc1nc(C#N)cs1	185 to 188 °C
O=[N+]([O-])c1ccccc1C#Cc1c(F)c(F)nc(F)c1F	109 to 110 °C
COC(=O)c1cc(-c2ccc(OC)c(F)c2)nn(CC2CCCC2)c1=O	56 to 66 °C
O=c1[nH]c2cscc2c(=O)n1CCCCN1CCN(c2cccc(C(F)(F)F)c2)CC1	126 to 128 °C
COc1ccc2nc3c(c(Cl)c2c1)C(=O)c1ccccc1-3	232 to 234 °C
CSc1c(O[C@@H]2CCC[C@H](N)C2)ccc2[nH]ncc12 (relative stereo)	112 to 113 °C

SMILES	melting point
COC(=O)c1ccc(Cc2cc3cc(Cl)ccc3[nH]2)cc1	118 °C
Cc1ccccc1C1=NC(C)(C)OC1c1ccc(N(C)C)cc1 (stereo not given)	89 to 90 °C
O=C(O)c1c(OCc2cccc(OCc3ccc4ccccc4n3)c2)cccc1C(F)(F)F	184 to 185 °C
O=C1c2ccccc2-c2c1c1ccccc1c(=O)n2C1CC1	206 to 208 °C
CN1C(=O)C2(COc3cc4c(cc32)OCCO4)c2c(NC(=O)c3ccccc3)cccc21 (stereo not given)	192 to 194 °C
CN1Cc2c(C(=O)OC3CCCC3)ncn2-c2cccc(Cl)c2C1=O	162 to 163 °C
CC(C)(C)OC(=O)Nc1ccc(C(=O)O)cc1C(F)(F)F	197 to 198 °C
Fc1cccc(N=C2SCCN2C(=S)Nc2cccc(F)c2)c1	108 to 109 °C
COc1ccc(CN(CCN(C)CCCCCCNC(=O)NCCSCc2csc(NC(=N)N)n2)c2ccccn2)cc1	60 °C
CCOC(=O)c1c(N)oc(-c2ccc([N+](=O)[O-])cc2)c1C(=O)OCC	174 to 177 °C
CC(C)[C@H](N)C(=O)OCc1nc2c(N)nc3ccccc3c2n1CCCCNS(C)(=O)=O	161 to 163 °C
COc1ccc2c(c1)OCC(=Cc1cccnc1)C2=O	126 to 128 °C
COc1cccc(C(=O)Nc2nc(-c3cccc(C#N)c3)c(-c3ccncn3)s2)c1	255 to 256 °C
CC(C)C(=O)Nc1ccc(OCC(O)CNC(C)(C)C)c(C#N)c1 (stereo not given)	118 to 121 °C
CN1CC(C)(CCCl)Oc2ncccc2C1=S (stereo not given)	119 to 121 °C
[N-]=[N+]=NCCO/N=C(\C(=O)O)c1csc(N)n1	180 °C
CCOC(=O)COc1c(OC)cc(Cl)c2c1CN1CCc3cc(OC)c(O)cc3C1C2 (single isomer, unassigned; (-))	132 °C
CCNC(=O)Oc1ccc2cc(N3CC(COC)OC3=O)ccc2c1 (stereo not given)	126 to 128 °C
O=C(O)c1ccc(N2Cc3ccccc3C2=O)cc1	> 295 °C
Nc1nc2cc(Br)ccc2c2c1nc(CNC(=O)C1CC1)n2CC1CCOCC1	240 °C
O=C(O)C(c1ccc2c(c1)OCO2)n1nc(C2CC2)cc(-c2ccccc2)c1=O (stereo not given)	176 °C
CC(=O)N(CCP(=O)(O)O)Cc1cc([N+](=O)[O-])cc2[nH]c(=O)c(=O)[nH]c12	248 °C
CCN(CC)CCNC(=O)c1cnc(-c2ccccc2)nc1S	178 to 180 °C
Clc1cnc(Oc2cccc(OCc3ccc(Cl)cc3Cl)c2)nc1	110 °C
CCOC(=O)c1cc(CN2C(=O)C3(COc4cc5c(cc43)OCO5)c3ccccc32)oc1C(F)(F)F (stereo not given)	162 to 164 °C
